From publication PMC11211441, “Distributable, metabolic PET reporting of tuberculosis” (Nature Communications, 2024)

Key:
[1] = tested on: mammalian (porcine) trehalase; experiment: Trehalase degradation assay; type: in vitro ADME; settings: 0.3 units/mL trehalase, 10 mM substrate
Experimental: The metabolic stabilities of the remaining three analogs, [^18F]FDT, 4-epi-[^18F]FDT and 6-[^18F]FDT were tested. Although, human trehalose-degrading trehalase activity is low and restricted primarily to the brush-border of the kidney where it is thought to be GPI-anchored[28],[32], it can be elevated in some diseases, therefore we also tested degradation of the analogs in vitro using high concentrations of mammalian (porcine) trehalase (0.3 units/mL, 10 mM substrate, Fig. S5). […]
Figure S5. Trehalase Assays.
Substrates were prepared to a final concentration of 10 mM in 0.05 M citric acid, pH 5.7 including trehalase stock solution (0.3 units/mL). The reaction mixture was incubated at 37 °C for 60 minutes, and then quenched with an equal volume of 0.1 M Tris, pH 7.5. Released glucose was measured with glucose assay kit (see Methods).

[2] = [19F]FDT clearance and in vivo stability in marmosets (plasma LC-MS, 19F NMR); design: species or system common marmosets; settings: marmosets (n = 3), LC-MS and 19F-NMR
Experimental: In order to determine [^19F]FDT metabolism in vivo, we assessed concentration vs time in two mammalian species: common marmosets and C57BL/6 mice. For marmosets weighing between 290.3–340.3 g, 20 mg of sterile-filtered FDT in PBS was injected IV (n = 3) and ~200 μL blood samples were taken from the femoral vein at 0 min, 5 min, 30 min, 60 min, 90 min and 180 min post injection. Samples were spun (4000 rcf for 10 mins at room temp) to separate red cell mass from plasma. Plasma portion was separated and stored at −80 °C for further analysis. Similarly, mice weighing from 18.7–20.5 g were injected (n = 5) with 5 mg of filter-sterilized FDT solution dissolved in PBS solution, pH 7.4. Mandibular blood samples were taken at 2 min, 15 min, 30 min and 45 min post injection. For the last sample in each mouse, the animal was bled out to get maximum sample for NMR analysis. Final urine samples were collected in 3 out of 5 mice through free catch. Blood samples were centrifuged (6500 rcf for 4 mins at room temp) to separate red cell mass from plasma, and plasma was separated and stored at −80 °C prior to analyzes.
Plasma samples from −80 °C were thawed on ice and mixed with 80% acetonitrile to precipitate plasma proteins and other biomolecules. Samples were centrifuged at 10,000 g, 4 °C for 10 min.
Figure S37. [19F]FDT Clearance and In Vivo Stability in Non-human Primates […]
A, B) 20 mg [19F]FDT was injected into marmosets (A, n=3 biological replicates, each measured in duplicate) and 5 mg FDT injected into mice (B, n=5 biological replicates, each measured in triplicate). […]
marmosets (A) and mice (B).
[19F]FDG was detected, consistent with the only low levels of metabolism seen with [18F]FDT in rabbits (see Figure S3G). C-F) We further analyzed the potential degradation of FDT into FDG by 19F NMR spectroscopy in marmoset plasma (C) sample from 5 min time point, mouse plasma (D) sample from 30 min time point and mouse urine samples from 30 min (E) and 45 min (F) time points, respectively. In all these samples only [19F]FDT was observed (d -201.2). The data points are average values from three replicates with error bars ± SD.
(1 picture or pasted object on this page, not shown here)

[3] = Human microsomal stability assay; settings: human liver microsomes, 3 µM, 80 min
Experimental: Microsomal stability assay was carried out as described previously. In brief, 10 x reduced nicotinamide adenine dinucleotide phosphate (NADPH)-regenerating system was freshly prepared by dissolving 37.2 mg glucose-6-phosphate (Sigma) in 1 mL of 100 mM potassium phosphate buffer, 39.8 mg nicotinamide adenine dinucleotide phosphate (NADP, Sigma) in 1 mL of potassium phosphate buffer, 11.5 U glucose-6-phosphate dehydrogenase (Thermo) in 1 mL of potassium phosphate buffer and 26.8 mg MgCl2.6H2O (Sigma) in 1 mL of distilled water. All these solutions were combined and kept on ice. […] After 5 min, 18 µL of NADPH-regenerating system was added to initiate reaction. Immediately after adding the NADPH regenerating system, 50 µL, 0 min time point sample was taken and quenched with equal volume of ice-cold methanol. Similarly further samples were taken at 10 min, 30 min, 60 min, 90 min and 120 min. Samples were centrifuged at 10,000 g at 4 °C for 10 min. […] After incubating the reaction mix at 37 °C for 5 min, 36 µL of NADPH regenerating system was added to initiate the reaction. 50 µL samples were taken at 0 min, 2.5 min, 5 min, 10 min, 20 min, 40 min and 80 min and reactions were quenched by adding equal amount of ice-cold acetonitrile and kept on ice.

[4] = Single and repeat iv dose toxicity study in rats; type: in vivo, Sprague Dawley rats
Experimental: (§1) For toxicity studies, 2 g of [^19F]-FDT was synthesized and tested for quality control as described above and in Figs.39 and shipped to a contract research organization. Toxicity studies were conducted by SRI International, Biosciences Division, Menlo Park, CA, USA in rats and dogs. The experimental design is described in Tables S10, S11, respectively.

[5] = Single and repeat iv dose toxicity study in dogs; type: in vivo; settings: beagle dogs, 100 x or 1000 x expected human dose iv
Experimental: as §1
To assess the toxicity associated with [^19F]-FDT in dogs, male and female Beagle dogs (5/sex) were given a daily iv injection of [^19F]-FDT at 0.4 mg/kg/day (100 times of human dose; Group 2) for 7 consecutive days, or a single iv administration of [^19F]-FDT at 0.4 or 4 mg/kg (100 and 1000 times of human dose in Groups 3 and 4, respectively) on Day 7. A control group (5/sex; Group 1), was given 7 days of vehicle (HEPES buffer, pH 7.5, 50 mM with MgCl2 7.5 mM), at an equivalent dose volume of 0.25 ml/kg on Days 1–7. Animals were sacrificed on Day 9 (3/sex/ group; main groups) or Day 21 (2/sex/group; recovery groups). The single dose administration for Groups 3–4 were initiated on Day 7 so that clinical pathology and necropsy occurred on the same calendar day for all Groups (1–4), thus allowing for sharing of vehicle control data for analysis of clinical pathology and necropsy results between the two dose regimens.

Question: Which results are given for `OC[C@H]1O[C@H](O[C@H]2O[C@H](CO)[C@@H](O)[C@H](O)[C@H]2F)[C@H](O)[C@@H](O)[C@@H]1O` [[^19F]FDT]?
Answer: degradation by trehalase [1]: little or no degradation; degradation by trehalase (Figure S5, released glucose) ([1]; pH 5.7, 37 °C, 60 minutes): 0; degradation in plasma / in vivo [2]: no detectable degradation; degradation in plasma / in vivo ([2]; listed as [19F]FDT): no degradation; % remaining [3]: > 50%; maximum tolerated dose (MTD) ([4]; Sprague Dawley rats, IV): not reached; adverse findings in any parameters measured ([4]; rats, 100 x or 1000 x expected human dose iv): no adverse findings; adverse findings in any parameters measured [5]: no adverse findings
